Laboratory results from ChEMBL document CHEMBL3046477, “Carbamate derivatives of felbamate as potential anticonvulsant agents” (Med Chem Res, 2010).
Calls of active or inactive are those of the source. No cut-off for these calls is given here.

Key:
Mus musculus [1] = test: Anticonvulsant activity in ip dosed Mus musculus Swiss Webster (mouse) assessed as protection against subcutaneous pentylenetetrazole-induced seizure at 0.5 hr; assay type: functional
Mus musculus [2] = test: Anticonvulsant activity in ip dosed Mus musculus Swiss Webster (mouse) assessed as protection against maximal electroshock-induced seizure at 0.5 hr; assay type: functional
Mus musculus [3] = test: Anticonvulsant activity in Mus musculus (mouse) assessed as protection against maximal electroshock-induced seizure at 300 mg/kg, ip; assay type: functional, organism-based; design: dose 300 mg/kg
Mus musculus [4] = test: Anticonvulsant activity in Mus musculus (mouse) assessed as protection against subcutaneous pentylenetetrazole-induced seizure up to 300 mg/kg, ip; assay type: functional, organism-based; design: dose 300 mg/kg
Mus musculus [5] = test: Anticonvulsant activity in po dosed Mus musculus (mouse) assessed as protection against maximal electroshock-induced seizure; assay type: functional
Rattus norvegicus [6] = test: Neurotoxicity in Rattus norvegicus (rat) assessed as minimal motor impairment at 20 mg/kg, ip at 30 min by rotorod test; assay type: toxicity, organism-based; design: dose 20 mg/kg, route intraperitoneal; settings: in vivo, 0.5 h
Rattus norvegicus [7] = test: Anticonvulsant activity Rattus norvegicus (rat) assessed as reduction of hippocampus kindling at 100 mg/kg, ip; assay type: functional, organism-based; design: dose 100 mg/kg
Mus musculus [8] = test: Anticonvulsant activity in Mus musculus (mouse) assessed as protection against maximal electroshock-induced seizure up to 300 mg/kg, ip; assay type: functional, organism-based; design: dose 300 mg/kg
[9] = Neurotoxicity in po dosed Rattus norvegicus (rat) assessed as minimal motor impairment by rotorod test; assay type: toxicity, organism-based; settings: in vivo
Rattus norvegicus [10] = test: Anticonvulsant activity in Rattus norvegicus (rat) assessed as protection against maximal electroshock-induced seizure at 20 mg/kg, ip at 10 min; assay type: functional, organism-based; design: dose 20 mg/kg
Rattus norvegicus [11] = test: Neurotoxicity in Rattus norvegicus (rat) assessed as minimal motor impairment at 20 mg/kg, ip at 60 min by rotorod test; assay type: toxicity, organism-based; design: dose 20 mg/kg, route intraperitoneal; settings: in vivo, 1 h
Rattus norvegicus [12] = test: Protective index, ratio of TD50 for po dosed Rattus norvegicus (rat) to ED50 for po dosed rat by maximal electroshock seizures test; assay type: functional
Rattus norvegicus [13] = test: Anticonvulsant activity in po dosed Rattus norvegicus (rat) assessed as protection against maximal electroshock-induced seizure; assay type: functional
Rattus norvegicus [14] = test: Protective index, ratio of TD50 for po dosed Rattus norvegicus (rat) to ED50 for po dosed rat by subcutaneous pentylenetetrazole seizure test; assay type: functional
Rattus norvegicus [15] = test: Neurotoxicity in Rattus norvegicus (rat) at 300 mg/kg, ip; assay type: toxicity, organism-based; design: dose 300 mg/kg, route intraperitoneal; settings: in vivo
Rattus norvegicus [16] = test: Neurotoxicity in Rattus norvegicus (rat) assessed as minimal motor impairment at 20 mg/kg, ip at 5 min by rotorod test; assay type: toxicity, organism-based; design: dose 20 mg/kg, route intraperitoneal; settings: in vivo
Rattus norvegicus [17] = test: Neurotoxicity in Rattus norvegicus (rat) assessed as minimal motor impairment at 20 mg/kg, ip at 15 min by rotorod test; assay type: toxicity, organism-based; design: dose 20 mg/kg, route intraperitoneal; settings: in vivo, 0.25 h
Rattus norvegicus [18] = test: Neurotoxicity in Rattus norvegicus (rat) assessed as minimal motor impairment at 20 mg/kg, ip at 10 min by rotorod test; assay type: toxicity, organism-based; design: dose 20 mg/kg, route intraperitoneal; settings: in vivo
Rattus norvegicus [19] = test: Anticonvulsant activity in po dosed Rattus norvegicus (rat) assessed as protection against subcutaneous pentylenetetrazole-induced seizure; assay type: functional
Rattus norvegicus [20] = test: Anticonvulsant activity in Rattus norvegicus (rat) assessed as protection against maximal electroshock-induced seizure at 20 mg/kg, ip at 60 min; assay type: functional, organism-based; design: dose 20 mg/kg
Mus musculus [21] = test: Anticonvulsant activity in Mus musculus (mouse) assessed as protection against subcutaneous pentylenetetrazole-induced seizure at 300 mg/kg, ip; assay type: functional, organism-based; design: dose 300 mg/kg
Mus musculus [22] = test: Anticonvulsant activity in ip dosed Mus musculus (mouse) assessed as protection against subcutaneous pentylenetetrazole-induced seizure; assay type: functional
[23] = Neurotoxicity in ip dosed Rattus norvegicus (rat) assessed as minimal motor impairment at 0.5 hr by rotorod test; assay type: toxicity, organism-based; settings: in vivo
Mus musculus [24] = test: Anticonvulsant activity in Mus musculus (mouse) assessed as protection against maximal electroshock-induced seizure at 100 mg/kg, ip; assay type: functional, organism-based; design: dose 100 mg/kg
Rattus norvegicus [25] = test: Anticonvulsant activity in ip dosed Rattus norvegicus (rat) assessed as protection against maximal electroshock-induced seizure; assay type: functional
Mus musculus [26] = test: Anticonvulsant activity in ip dosed Mus musculus (mouse) assessed as protection against maximal electroshock-induced seizures; assay type: functional
[27] = Neurotoxicity in ip dosed Mus musculus (mouse) assessed as minimal motor impairment by rotorod test; assay type: toxicity, organism-based; settings: in vivo
Rattus norvegicus [28] = test: Anticonvulsant activity in Rattus norvegicus (rat) assessed as protection against maximal electroshock-induced seizure at 30 mg/kg, po; assay type: functional, organism-based; design: dose 30 mg/kg
Mus musculus [29] = test: Anticonvulsant activity in po dosed Mus musculus Swiss Webster (mouse) assessed as protection against maximal electroshock-induced seizure at 0.5 hr; assay type: functional
Rattus norvegicus [30] = test: Anticonvulsant activity in Rattus norvegicus (rat) assessed as protection against maximal electroshock-induced seizure at 20 mg/kg, ip at 15 min; assay type: functional, organism-based; design: dose 20 mg/kg
Rattus norvegicus [31] = test: Anticonvulsant activity in Rattus norvegicus (rat) assessed as protection against maximal electroshock-induced seizure at 20 mg/kg, ip at 30 min; assay type: functional, organism-based; design: dose 20 mg/kg
Mus musculus [32] = test: Anticonvulsant activity in Mus musculus Swiss Webster (mouse) assessed as protection against maximal electroshock-induced seizure at 300 mg/kg, ip at 0.5 hr; assay type: functional, organism-based; design: dose 300 mg/kg
Mus musculus [33] = test: Anticonvulsant activity in Mus musculus Swiss Webster (mouse) assessed as protection against subcutaneous pentylenetetrazole-induced seizure up to 300 mg/kg, ip at 0.5 hr; assay type: functional, organism-based; design: dose 300 mg/kg

## NC(=O)OCc1ccccc1 [BENZYL CARBAMATE]
Mus musculus [1]
  ED50: 80.2 mg/kg
Mus musculus [2]
  ED50: 30.6 mg/kg

## O=C(N[C@H](CO)Cc1ccccc1)OCc1ccccc1
Mus musculus [1]
  Activity: Active
Mus musculus [3]
  Activity: Active
Mus musculus [4]
  Activity: inactive
Mus musculus [2]
  ED50: 33.5 mg/kg

## NC(=O)OCC(CO)c1ccccc1 (stereo unspecified)
Mus musculus [5]
  ED50: 154 mg/kg

## O=C(NCCO)OCc1ccccc1
Mus musculus [1]
  ED50: 170 mg/kg
Mus musculus [3]
  Activity: Active
Mus musculus [4]
  Activity: inactive
Mus musculus [2]
  ED50: 25.2 mg/kg

## C[C@H](CO)NC(=O)OCc1ccccc1
Rattus norvegicus [6]
  Activity: Non-toxic
Rattus norvegicus [7]
  Activity: inactive
Mus musculus [1]
  ED50: 226 mg/kg
Mus musculus [8]
  Activity: inactive
[9]
  TD50: > 500 mg/kg
Rattus norvegicus [10]
  Activity: inactive
Rattus norvegicus [11]
  Activity: Non-toxic
Rattus norvegicus [12]
  Ratio TD50/ED50: >21
Rattus norvegicus [13]
  ED50: 23.9 mg/kg
Rattus norvegicus [14]
  Ratio TD50/ED50: 2
Rattus norvegicus [15]
  Activity: Toxic
Rattus norvegicus [16]
  Activity: Non-toxic
Rattus norvegicus [17]
  Activity: Non-toxic
Mus musculus [4]
  Activity: inactive
Rattus norvegicus [18]
  Activity: Non-toxic
Rattus norvegicus [19]
  ED50: > 250 mg/kg
Mus musculus [2]
  ED50: 60.1 mg/kg
Rattus norvegicus [20]
  Activity: inactive

## CCCC(CO)NC(=O)OCc1ccccc1 (racemic)
Mus musculus [1]
  ED50: 281 mg/kg
Mus musculus [3]
  Activity: Active
Mus musculus [2]
  ED50: 51.8 mg/kg
Mus musculus [21]
  Activity: Active

## CC[C@@H](CO)NC(=O)OCc1ccccc1
Mus musculus [1]
  ED50: 111 mg/kg
Mus musculus [3]
  Activity: Active
Mus musculus [4]
  Activity: inactive
Mus musculus [2]
  ED50: 123 mg/kg

## CCC(COC(N)=O)c1ccccc1 (racemic)
Rattus norvegicus [7]
  Activity: inactive
Mus musculus [1]
  ED50: 124 mg/kg
Mus musculus [22]
  ED50: 87.6 mg/kg
[9]
  TD50: > 320 mg/kg
[23]
  TD50 at 0.5 h: 50.5 mg/kg
Mus musculus [24]
  Activity: Active
Rattus norvegicus [25]
  ED50: 16.1 mg/kg
Rattus norvegicus [12]
  Ratio TD50/ED50: >15.3
Rattus norvegicus [13]
  ED50: 21 mg/kg
Rattus norvegicus [14]
  Ratio TD50/ED50: 8
Rattus norvegicus [15]
  Activity: Toxic
Mus musculus [26]
  ED50: 72.7 mg/kg
Rattus norvegicus [19]
  ED50: > 40 mg/kg
[27]
  TD50: 114 mg/kg
Mus musculus [2]
  ED50: 71.7 mg/kg
Rattus norvegicus [28]
  Activity: Active
Mus musculus [21]
  Activity: Active

## O=C(NCc1ccccc1)OCc1ccccc1 [BENZYL BENZYLCARBAMATE]
Mus musculus [1]
  ED50: 115 mg/kg
Mus musculus [3]
  Activity: Active
Mus musculus [4]
  Activity: inactive
Mus musculus [2]
  ED50: 170 mg/kg

## O=C(N[C@@H](CO)Cc1ccccc1)OCc1ccccc1
Mus musculus [1]
  Anticonvulsant activity: Active
Mus musculus [3]
  Activity: Active
Mus musculus [4]
  Activity: inactive
Mus musculus [2]
  ED50: 14.9 mg/kg

## NC(=O)OCC(COC(N)=O)c1ccccc1 [FELBAMATE]
Rattus norvegicus [7]
  Activity: inactive
Mus musculus [1]
  ED50: 548 mg/kg
Mus musculus [29]
  ED50: 52 mg/kg
Mus musculus [22]
  ED50: 126 mg/kg
[9]
  TD50: > 500 mg/kg
Rattus norvegicus [13]
  ED50: 25.3 mg/kg
Mus musculus [26]
  ED50: 35.5 mg/kg
Rattus norvegicus [19]
  ED50: > 250 mg/kg
Mus musculus [2]
  ED50: 35 mg/kg

## C[C@@H](CO)NC(=O)OCc1ccccc1
Rattus norvegicus [6]
  Activity: Non-toxic
Mus musculus [1]
  ED50: 258 mg/kg
Mus musculus [8]
  Activity: inactive
[9]
  TD50: > 360 mg/kg
Rattus norvegicus [11]
  Activity: Non-toxic
Rattus norvegicus [30]
  Activity: inactive
Rattus norvegicus [31]
  Activity: inactive
Rattus norvegicus [12]
  Ratio TD50/ED50: >5.3
Rattus norvegicus [13]
  ED50: 67.6 mg/kg
Rattus norvegicus [14]
  Ratio TD50/ED50: 2.88
Rattus norvegicus [16]
  Activity: Non-toxic
Rattus norvegicus [17]
  Activity: Non-toxic
Mus musculus [4]
  Activity: inactive
Rattus norvegicus [18]
  Activity: Non-toxic
Rattus norvegicus [19]
  ED50: > 125 mg/kg
Mus musculus [2]
  ED50: 54.7 mg/kg
Rattus norvegicus [28]
  Activity: Active

## NC(=O)Oc1ccccc1 [CARBAMIC ACID PHENYL ESTER]
Mus musculus [1]
  ED50: 101 mg/kg
Mus musculus [32]
  Activity: Active

## NC(=O)OCCc1ccccc1 [PHENYLETHYL CARBAMATE]
Mus musculus [33]
  Activity: inactive
Mus musculus [2]
  ED50: 17.7 mg/kg

## CC[C@H](CO)NC(=O)OCc1ccccc1
Mus musculus [1]
  ED50: 144 mg/kg
Mus musculus [3]
  Activity: Active
Mus musculus [4]
  Activity: inactive
Mus musculus [2]
  ED50: 80.5 mg/kg

## CNC(=O)OCc1ccccc1 [BENZYL N-METHYLCARBAMATE]
Mus musculus [33]
  Activity: inactive
Mus musculus [2]
  ED50: 40.5 mg/kg

## CCCC(C)(COC(N)=O)COC(N)=O [MEPROBAMATE]
Mus musculus [1]
  ED50: 66 mg/kg
Mus musculus [29]
  ED50: 165 mg/kg
Mus musculus [2]
  ED50: 127 mg/kg
